These results are taken from PubChem BioAssay AID328 (DTP/NCI, 2004).

For the experiment, the system named is BDF1 mice, P388 leukemia ip, median survival T/C. Nature of the experiment: NCI In Vivo Anticancer Drug Screen. Data for tumor model P388 Leukemia (intraperitoneal) in B6D2F1 (BDF1) mice. As to conditions: endpoint: median survival time, higher = longer survival. The method, boiled down: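 Reported as T/C, where T is the survival measurement in dosed animals and C the same measurement in vehicle controls.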

[1] abbreviates: dose: 100.0 mg/kg/injection, schedule: Q04DX003 (ip), vehicle: saline sonified.
Setting [2] is: dose: 200.0 mg/kg/injection, schedule: Q04DX003 (ip), vehicle: saline sonified.
Where [3] appears, read: dose: 50.0 mg/kg/injection, schedule: Q01DX009 (ip), vehicle: saline with Tween-80.
Setting [4] is: dose: 100.0 mg/kg/injection, schedule: Q01DX009 (ip), vehicle: saline with Tween-80.
Where [5] appears, read: dose: 25.0 mg/kg/injection, schedule: Q01DX009 (ip), vehicle: saline with Tween-80.
The mark [6] stands for this setting: dose: 37.5 mg/kg/injection, schedule: Q01DX009 (ip), vehicle: saline with Tween-80.
The mark [7] stands for this setting: dose: 100.0 mg/kg/injection, schedule: Q01DX009 (ip), vehicle: Klucel (hydroxypropylcellulose) (HPC).
Where [8] appears, read: dose: 200.0 mg/kg/injection, schedule: Q01DX009 (ip), vehicle: Klucel (hydroxypropylcellulose) (HPC).
Setting [9] is: dose: 25.0 mg/kg/injection, schedule: Q01DX009 (ip), vehicle: saline.
The mark [10] stands for this setting: dose: 50.0 mg/kg/injection, schedule: Q01DX009 (ip), vehicle: saline.
Setting [11] is: dose: 100.0 mg/kg/injection, schedule: Q04DX003 (ip), vehicle: saline.
Setting [12] is: dose: 200.0 mg/kg/injection, schedule: Q04DX003 (ip), vehicle: saline.
The mark [13] stands for this setting: dose: 400.0 mg/kg/injection, schedule: Q04DX003 (ip), vehicle: saline.
[14] abbreviates: dose: 100.0 mg/kg/injection, schedule: Q04DX003 (ip), vehicle: Klucel (hydroxypropylcellulose) (HPC).
The mark [15] stands for this setting: dose: 200.0 mg/kg/injection, schedule: Q04DX003 (ip), vehicle: Klucel (hydroxypropylcellulose) (HPC).
The mark [16] stands for this setting: dose: 400.0 mg/kg/injection, schedule: Q04DX003 (ip), vehicle: Klucel (hydroxypropylcellulose) (HPC).

Several values for one entry are separate records, joined by “and”; a condition that tells them apart may be missing. Equal entries are not always repeated. Toxic doses and inconclusive results are not listed.

Take `CC(=O)N(NC(=O)c1ccccn1)C(C)=O`: the T/C was 86 % of control (dose: 50.0 mg/kg/injection, schedule: Q01DX009 (ip), vehicle: saline sonified); 104 % of control (dose: 50.0 mg/kg/injection, schedule: Q04DX003 (ip), vehicle: saline sonified); 95 % of control (dose: 100.0 mg/kg/injection, schedule: Q01DX009 (ip), vehicle: saline sonified); 90 % of control under setting [1]; 91 % of control (dose: 200.0 mg/kg/injection, schedule: Q01DX009 (ip), vehicle: saline sonified); 104 % of control under setting [2].
As for `[Cl][Cr]([Cl])[Cl].[NH-]CC[N-]CC[NH-]`, the T/C runs as follows: under setting [3], 116 % of control; under setting [4], 100 % of control; (dose: 200.0 mg/kg/injection, schedule: Q01DX009 (ip), vehicle: saline with Tween-80) 100 % of control.
Turning to `Brc1ccc(C#Cc2ccccc2)cc1`, the T/C is 104 % of control (dose: 100.0 mg/kg/injection, schedule: Q01DX001 (ip), vehicle: Klucel (hydroxypropylcellulose) (HPC)); 108 % of control (dose: 200.0 mg/kg/injection, schedule: Q01DX001 (ip), vehicle: Klucel (hydroxypropylcellulose) (HPC)); 108 % of control (dose: 400.0 mg/kg/injection, schedule: Q01DX001 (ip), vehicle: Klucel (hydroxypropylcellulose) (HPC)).
For `COc1ccc(N=NNc2ccc(OC)cc2)cc1`, the T/C under setting [5] is 154 % of control; the T/C under setting [6] is 155 % of control and 166 % of control.
For the molecule `Cc1onc(-c2ccccc2Cl)c1C(=O)Nc1ccccc1CC1c2ccccc2CCN1C` (stereo unspecified), the T/C by setting is: (dose: 50.0 mg/kg/injection, schedule: Q01DX009 (ip), vehicle: Klucel (hydroxypropylcellulose) (HPC)) 101 % of control; under setting [7], 104 % of control; under setting [8], 95 % of control.
Take `C1CC2CCC1CNC2`: the T/C under setting [5] was 95 % of control, the T/C under setting [3] is 100 % of control and the T/C under setting [4] is 100 % of control.
On to `COc1ccc2c(c1)N=C1CCCC3CCCCC123` (stereo unspecified), for which the T/C reads like this: (dose: 100.0 mg/kg/injection, schedule: Q04DX003 (ip), vehicle: saline with Tween-80) 99 % of control; (dose: 200.0 mg/kg/injection, schedule: Q04DX003 (ip), vehicle: saline with Tween-80) 114 % of control.
`O=S(=O)(Nc1ccc(NS(=O)(=O)c2ccccc2)c(S(=O)(=O)c2ccccc2)c1)c1ccccc1`: the T/C is 100 % of control (dose: 100.0 mg/kg/injection, schedule: Q01DX001 (ip), vehicle: saline with Tween-80); 100 % of control (dose: 200.0 mg/kg/injection, schedule: Q01DX001 (ip), vehicle: saline with Tween-80); 100 % of control (dose: 400.0 mg/kg/injection, schedule: Q01DX001 (ip), vehicle: saline with Tween-80).
As to `O=C(OC[P+](c1ccccc1)(c1ccccc1)c1ccccc1)c1ccccc1`, the T/C reads like this: (dose: 3.13 mg/kg/injection, schedule: Q01DX009 (ip), vehicle: saline) 112 % of control; under setting [9], 122 % of control; under setting [10], 91 % of control.
`CCOC(=O)C(C(=O)COC)C(=O)OCC`: the T/C (dose: 12.5 mg/kg/injection, schedule: Q04DX003 (ip), vehicle: water) is 100 % of control; the T/C (dose: 25.0 mg/kg/injection, schedule: Q04DX003 (ip), vehicle: water) is 108 % of control; the T/C (dose: 50.0 mg/kg/injection, schedule: Q04DX003 (ip), vehicle: water) was 105 % of control; the T/C (dose: 100.0 mg/kg/injection, schedule: Q04DX003 (ip), vehicle: water) was 115 % of control; the T/C (dose: 200.0 mg/kg/injection, schedule: Q04DX003 (ip), vehicle: water) was 115 % of control.
On to `C1CNC2NCCNC2N1` (stereo unspecified), for which the T/C reads like this: (dose: 66.0 mg/kg/injection, schedule: Q04DX003 (ip), vehicle: saline) 104 % of control; under setting [11], 100 % of control; (dose: 117.0 mg/kg/injection, schedule: Q04DX003 (ip), vehicle: saline) 109 % of control; (dose: 132.0 mg/kg/injection, schedule: Q01DX009 (ip), vehicle: saline) 156 % of control; (dose: 150.0 mg/kg/injection, schedule: Q04DX003 (ip), vehicle: saline) 100 % of control; (dose: 178.0 mg/kg/injection, schedule: Q04DX003 (ip), vehicle: saline) 154 % of control. In addition, the T/C under setting [12] is 120 % of control; the T/C (dose: 266.0 mg/kg/injection, schedule: Q04DX003 (ip), vehicle: saline) was 122 % of control; the T/C (dose: 300.0 mg/kg/injection, schedule: Q01DX009 (ip), vehicle: saline) was 150 % of control; the T/C (dose: 400.0 mg/kg/injection, schedule: Q01DX009 (ip), vehicle: saline) was 150 % of control; the T/C under setting [13] is 172 % of control.
In the case of `COc1ccc(/C=N\NC(=O)OC(C)(C)C)c(OC)c1OC`, the T/C was 100 % of control (dose: 100.0 mg/kg/injection, schedule: Q01DX009 (ip), vehicle: acetone); 115 % of control under setting [14]; 86 % of control (dose: 200.0 mg/kg/injection, schedule: Q01DX009 (ip), vehicle: acetone); 110 % of control under setting [15]; 109 % of control (dose: 400.0 mg/kg/injection, schedule: Q01DX009 (ip), vehicle: acetone); 100 % of control under setting [16].
Take `O=C(C(Br)C(Br)c1ccccc1)N1CCOCC1` (stereo unspecified): the T/C was 104 % of control under setting [1]; 100 % of control under setting [2]; 113 % of control (dose: 400.0 mg/kg/injection, schedule: Q04DX003 (ip), vehicle: saline sonified).
Consider `Cc1cccc(NS(=O)(=O)c2ccc(Cl)cc2)c1C`, for which the T/C was 100 % of control under setting [11], 95 % of control under setting [12] and 108 % of control under setting [13].
As for `Cc1[nH]ccc2c(C)c3nc4ccccc4c3cc12`, the T/C runs as follows: (dose: 0.39 mg/kg/injection, schedule: Q01DX009 (ip), vehicle: saline with Tween-80) 116 % of control; (dose: 0.59 mg/kg/injection, schedule: Q01DX009 (ip), vehicle: saline with Tween-80) 100 % of control; (dose: 0.9 mg/kg/injection, schedule: Q01DX009 (ip), vehicle: saline with Tween-80) 150 % of control; (dose: 1.35 mg/kg/injection, schedule: Q01DX009 (ip), vehicle: saline with Tween-80) 160 % of control; (dose: 4.12 mg/kg/injection, schedule: Q01DX009 (ip), vehicle: saline with Tween-80) 168 % of control; (dose: 8.25 mg/kg/injection, schedule: Q01DX009 (ip), vehicle: saline with Tween-80) 177 % of control. Also, the T/C was 163 % of control (dose: 16.5 mg/kg/injection, schedule: Q01DX009 (ip), vehicle: saline with Tween-80); 165 % of control and 168 % of control under setting [5]; 225 % of control and 154 % of control under setting [6].
Regarding `C=CCCCCC/C=C/CCCCCC`, the T/C is, setting by setting: (dose: 75.0 mg/kg/injection, schedule: Q01DX010 (ip), vehicle: saline with Tween-80) 90 % of control; (dose: 150.0 mg/kg/injection, schedule: Q01DX010 (ip), vehicle: saline with Tween-80) 122 % of control.
As for `COc1cc(Br)cc(C(=O)O)c1OC`, the T/C was 96 % of control (dose: 50.0 mg/kg/injection, schedule: Q01DX009 (ip), vehicle: distilled water + Tween-80) and 88 % of control (dose: 100.0 mg/kg/injection, schedule: Q01DX009 (ip), vehicle: distilled water + Tween-80).
`O=C(OCC#CC#CCOC(=O)c1ccccc1)c1ccccc1`: the T/C by setting is: under setting [7], 104 % of control; under setting [14], 100 % of control; under setting [8], 113 % of control; under setting [15], 90 % of control; (dose: 400.0 mg/kg/injection, schedule: Q01DX009 (ip), vehicle: Klucel (hydroxypropylcellulose) (HPC)) 104 % of control; under setting [16], 109 % of control.
For `O=C(O)CCCCCCCCCCCCO`, the T/C is 109 % of control under setting [14], 90 % of control under setting [15] and 90 % of control under setting [16].
For `C=C1C(=O)OC2CC(C)C3(O)OC(C)(CC(OC(=O)C(C)C)C12)CC3O` (stereo unspecified), the T/C is 120 % of control (dose: 13.0 mg/kg/injection, schedule: Q01DX009 (ip), vehicle: saline); 110 % of control under setting [9]; 95 % of control under setting [10].
